Drawing on US6936270B2, “Device and method for treating conditions of a joint” (Control Delivery Systems, Inc., priority 2000, dated 2005), this text covers concentration for one compound.

Where two headings read alike, the source gives them in different places.

This series is described as follows: Fluocinolone acetonide concentration in dog plasma after bilateral intraarticular implants (twelve month toxicity study in beagle dogs). Format: in vivo, Canis familiaris. To be noted: other: bilateral intraarticular implants (knee joints). As to the method: Devices were administered once via bilateral intraarticular implants. The day of surgical implantation was Day 1. The devices were made as follows. Fluocinolone acetonide, USP, was compressed into 1.5 mm diameter tablets using standard pharmaceutical methods. The tablets were placed into preformed cups made from silicone elastomer. Cup size was dependent on dosage form. These cups were attached to […] (PVA) suture tabs. For the 2 mg implants, the surface of the tablet not coated with silicone was attached to a suture tab with PVA solution. For the 6 mg implant, a side of the silicone cup was attached perpendicular to the suture tab. Finally, the assemblies were dip coated with PVA. The implants were then cured at 135° C. for 5 hours and placed within the primary package. The product in the primary package was placed in a self-adhesive pouch and sterilized using gamma irradiation. Surgery was performed on both knee joints of all animals. A lateral skin incision was made to expose the fascia lata overlying the vastus lateralis cranially and the biceps fernoris caudally. The joint was exposed through an incision in the lateral intermuscular septum to expose the femur by anterior retraction of the vastus lateralis and posterior retraction of the biceps femoris. Care was taken not to disrupt the tendon of origin of the long digital extensor as it originates from the lateral femoral condyle. The joint capsule was opened, the patella luxated medially, and the joint was held in full flexion. 2 mg devices were placed in the right leg and 18 mg implants were placed in the left leg. The implants were placed within the anterior intercondyloid fossa, immediately lateral to the origin of the posterior cruciate ligament. The bone may be slightly deepened at this location with a curette to accept the implant. The implant was sutured in place to the posterior cruciate ligament. The joint capsule was closed with 3/0 PDS in a simple interrupted fashion. The retinaculum and intermuscular septum were closed with 2/0 Vicryl in a continuous pattern. The fascia lata were closed with 2/0 PDS, and the subcutaneous tissues with 3/0 PDS, both in a simple continuous pattern. The skin was closed with 3/0 Vicryl in a subcuticular pattern. Blood was collected from a peripheral vessel. Blood volumes represent whole blood and are approximate amounts. The blood samples were processed for plasma, the plasma was extracted, and the plasma was placed immediately in a ≦−70°C. freezer until transferred for analysis.

For `CC1(C)O[C@@H]2C[C@H]3[C@@H]4C[C@H](F)C5=CC(=O)C=C[C@]5(C)[C@@]4(F)[C@@H](O)C[C@]3(C)[C@]2(C(=O)CO)O1` [Fluocinolone Acetonide], under “Dog 1001, Day 3, read-out: Assayed Concentrations of Fluocinolone Acetonide in Dog Plasma Samples”, the concentration at 3 day is 1.89 ng/mL. Moreover, the concentration at 21 day runs as follows: (Dog 1001, Day 21, read-out: Assayed Concentrations of Fluocinolone Acetonide in Dog Plasma Samples) 0.57 ng/mL; (Dog 3001, Day 21, read-out: Assayed Concentrations of Fluocinolone Acetonide in Dog Plasma Samples) 4.92 ng/mL. For the same compound, the concentration at 7 day (Dog 3001, Day 7, read-out: Assayed Concentrations of Fluocinolone Acetonide in Dog Plasma Samples) was determined as 16.9 ng/mL.
